Results: patent US9580444B2, “Polycyclic pyrazolinone derivative and herbicide comprising same as effective component thereof” (priority 2013, dated 2017)

What was measured:
Assay type in all cases: in vivo
[1] = test system: Scirpus juncoides (bulrush); assay: Test Example-1: herbicidal effect by a treatment before weeds are generated under submerged conditions; details: 500 g a.i/ha, pre-emergence treatment, about 15 days after treatment, score 0-5
Outline: (§1)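 Paddy-soil cups were puddled, sown with the weeds and kept submerged. On the seeding day, diluted wettable powder or emulsifiable concentrate was applied as a submersing treatment at a predetermined dosage. Herbicidal effect was scored 0–5 about 15 days after treatment.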

[2] = test system: Cyperus difformis (smallflower umbrella plant); assay: as above; details: 500 g a.i/ha, pre-emergence treatment, about 15 days after treatment, score 0-5
Outline: as §1

[3] = test system: Echinochloa oryzicola (barnyard grass); assay: as above; details: 500 g a.i/ha, pre-emergence treatment, about 15 days after treatment, score 0-5
Outline: as §1

[4] = test system: other annual broad leaf weeds (Lindernia procumbens, Rotala indica, Elatine triandra); assay: as above; details: 500 g a.i/ha, pre-emergence treatment, about 15 days after treatment, score 0-5
Outline: as §1

[5] = test system: Monochoria vaginalis (monochoria); assay: as above; details: 500 g a.i/ha, pre-emergence treatment, about 15 days after treatment, score 0-5
Outline: as §1

[6] = test system: Eleocharis acicularis (needle spikerush); assay: as above; details: 500 g a.i/ha, pre-emergence treatment, about 15 days after treatment, score 0-5
Outline: as §1

corn [7] = assay: Test Example-2: phytotoxicity by a soil treatment before weeds are generated under upland field conditions; details: application amount 500 g a.i/ha, soil spray treatment before weeds are generated, about 21 days after the treatment, score 0 to 5
From the text: (§2) Using the formulation prepared according to the methods described above, the herbicidal effect of the bicyclic pyrazolinone derivative of the invention according to the methods shown in Test Examples below was examined. The herbicidal effect with respect to the test weeds or the phytotoxicity with respect to the test crops was examined according to the following criteria, and evaluated in six stage scores of 0 to 5. A vat having an area of 81 cm^2 and a depth of 3.5 cm was filled with upland soil, then, seeds of Amaranthus viridis (green amaranthus), Chenopodium album (common lambsquarters), and corn were seeded thereto, and the seeds were covered with soil of about 0.5 cm. Next day, a wettable powder or an emulsifiable concentrate of the compound of the present invention prepared according to Formulation Example was diluted, and a spray treatment was uniformly performed on the covered oil so as to be a predetermined dosage. The herbicidal effect with respect to the test weeds and the phytotoxicity with respect to corn about 21 days after the treatment were evaluated according to the evaluation criteria in six stages of 0 to 5 described above.

corn [8] = assay: Test Example-4: phytotoxicity by a foliage treatment after weeds are generated under upland field conditions; details: 500 g a.i/ha, foliage treatment after emergence, about 14 days after treatment, score 0-5
Outline: (§3)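 Weeds sown in upland soil (65 cm^2 vat) and grown 14 days, then foliage-sprayed with diluted wettable powder or emulsifiable concentrate at a predetermined dosage in 4000 L water per hectare. Weed control and corn phytotoxicity were scored about 14 days after treatment on a 0–5 scale.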

[9] = test system: Chenopodium album (common lambsquarters); assay: Test Example-2: herbicidal effect by a soil treatment before weeds are generated under upland field conditions; details: application amount 500 g a.i/ha, soil spray treatment before weeds are generated, about 21 days after the treatment, score 0 to 5
From the text: as §2

[10] = test system: Amaranthus viridis (green amaranthus); assay: as above; details: application amount 500 g a.i/ha, soil spray treatment before weeds are generated, about 21 days after the treatment, score 0 to 5
From the text: as §2

[11] = test system: Chenopodium album (common lambsquarters); assay: Test Example-4: herbicidal effect by a foliage treatment after weeds are generated under upland field conditions; details: 500 g a.i/ha, foliage treatment after emergence, about 14 days after treatment, score 0-5
Outline: as §3

[12] = test system: Abutilon theophrasti (velvetleaf); assay: as above; details: 500 g a.i/ha, foliage treatment after emergence, about 14 days after treatment, score 0-5
Outline: as §3

[13] = test system: Amaranthus viridis (green amaranthus); assay: as above; details: 500 g a.i/ha, foliage treatment after emergence, about 14 days after treatment, score 0-5
Outline: as §3

| Compound | Herbicidal effect Scirpus juncoides [1] | Herbicidal effect Cyperus difformis [2] | Herbicidal effect Echinochloa oryzicola [3] | Herbicidal effect Broadleaf weed [4] | Herbicidal effect Monochoria vaginalis [5] | Herbicidal effect Eleocharis acicularis [6] | Phytotoxicity Corn (corn [7]) | Phytotoxicity Corn (corn [8]) | Herbicidal effect Chenopodium album [9] | Herbicidal effect Amaranthus viridis [10] | Herbicidal effect Chenopodium album [11] | Herbicidal effect Abutilon theophrast [12] | Herbicidal effect Amaranthus viridis [13] |
| --- | --- | --- | --- | --- | --- | --- | --- | --- | --- | --- | --- | --- | --- |
| C=C(Cl)COc1cc(-c2c(Cl)n3n(c2=O)CCCC3)c(F)cc1Cl [Example 1-369] | 5 (Herbicidal effect/phytotoxicity was 90% or greater) | 5 (Herbicidal effect/phytotoxicity was 90% or greater) | 5 (Herbicidal effect/phytotoxicity was 90% or greater) | 5 (Herbicidal effect/phytotoxicity was 90% or greater) | 5 (Herbicidal effect/phytotoxicity was 90% or greater) | 5 (Herbicidal effect/phytotoxicity was 90% or greater) | 0 (Herbicidal effect/phytotoxicity was 0% to 10%) | 1 (Herbicidal effect/phytotoxicity was 10% to 30%) | 5 (Herbicidal effect/phytotoxicity was 90% or greater) | 5 (Herbicidal effect/phytotoxicity was 90% or greater) | 5 (Herbicidal effect/phytotoxicity was 90% or greater) | 5 (Herbicidal effect/phytotoxicity was 90% or greater) | 5 (Herbicidal effect/phytotoxicity was 90% or greater) |
| CC(C)Oc1cc(-c2c(Cl)n3n(c2=O)CCCC3)c(F)cc1Cl [Example 1-151] | 5 (Herbicidal effect/phytotoxicity was 90% or greater) | 5 (Herbicidal effect/phytotoxicity was 90% or greater) | 5 (Herbicidal effect/phytotoxicity was 90% or greater) | 5 (Herbicidal effect/phytotoxicity was 90% or greater) | 5 (Herbicidal effect/phytotoxicity was 90% or greater) | 5 (Herbicidal effect/phytotoxicity was 90% or greater) | 0 (Herbicidal effect/phytotoxicity was 0% to 10%) | 1 (Herbicidal effect/phytotoxicity was 10% to 30%) | 5 (Herbicidal effect/phytotoxicity was 90% or greater) | 5 (Herbicidal effect/phytotoxicity was 90% or greater) | 5 (Herbicidal effect/phytotoxicity was 90% or greater) | 5 (Herbicidal effect/phytotoxicity was 90% or greater) | 5 (Herbicidal effect/phytotoxicity was 90% or greater) |
| C#CCOc1cc(-c2c(Cl)n3n(c2=O)CCCC3)c(Cl)cc1Cl [Example 1-302] | 5 (Herbicidal effect/phytotoxicity was 90% or greater) | 5 (Herbicidal effect/phytotoxicity was 90% or greater) | 5 (Herbicidal effect/phytotoxicity was 90% or greater) | 5 (Herbicidal effect/phytotoxicity was 90% or greater) | 5 (Herbicidal effect/phytotoxicity was 90% or greater) | 5 (Herbicidal effect/phytotoxicity was 90% or greater) | 2 (Herbicidal effect/phytotoxicity was 30% to 50%) | 1 (Herbicidal effect/phytotoxicity was 10% to 30%) | 5 (Herbicidal effect/phytotoxicity was 90% or greater) | 5 (Herbicidal effect/phytotoxicity was 90% or greater) | 5 (Herbicidal effect/phytotoxicity was 90% or greater) | 5 (Herbicidal effect/phytotoxicity was 90% or greater) | 5 (Herbicidal effect/phytotoxicity was 90% or greater) |
| C#CC(C)Oc1cc(-c2c(Cl)n3n(c2=O)CCOCC3)c(F)cc1Cl (stereo not drawn) [Example 1-245] | 5 (Herbicidal effect/phytotoxicity was 90% or greater) | 5 (Herbicidal effect/phytotoxicity was 90% or greater) | 5 (Herbicidal effect/phytotoxicity was 90% or greater) | 5 (Herbicidal effect/phytotoxicity was 90% or greater) | 5 (Herbicidal effect/phytotoxicity was 90% or greater) | 5 (Herbicidal effect/phytotoxicity was 90% or greater) | 0 (Herbicidal effect/phytotoxicity was 0% to 10%) | 1 (Herbicidal effect/phytotoxicity was 10% to 30%) | 5 (Herbicidal effect/phytotoxicity was 90% or greater) | 5 (Herbicidal effect/phytotoxicity was 90% or greater) | 5 (Herbicidal effect/phytotoxicity was 90% or greater) | 5 (Herbicidal effect/phytotoxicity was 90% or greater) | 5 (Herbicidal effect/phytotoxicity was 90% or greater) |
| C#CCOc1cc(-c2c(F)n3n(c2=O)CCCC3)c(Cl)cc1Cl [Example 1-358] | 5 (Herbicidal effect/phytotoxicity was 90% or greater) | 5 (Herbicidal effect/phytotoxicity was 90% or greater) | 5 (Herbicidal effect/phytotoxicity was 90% or greater) | 5 (Herbicidal effect/phytotoxicity was 90% or greater) | 5 (Herbicidal effect/phytotoxicity was 90% or greater) | 5 (Herbicidal effect/phytotoxicity was 90% or greater) | 0 (Herbicidal effect/phytotoxicity was 0% to 10%) | 1 (Herbicidal effect/phytotoxicity was 10% to 30%) | 5 (Herbicidal effect/phytotoxicity was 90% or greater) | 5 (Herbicidal effect/phytotoxicity was 90% or greater) | 5 (Herbicidal effect/phytotoxicity was 90% or greater) | 5 (Herbicidal effect/phytotoxicity was 90% or greater) | 5 (Herbicidal effect/phytotoxicity was 90% or greater) |
| C#CC(C)Oc1cc(-c2c(Cl)n3n(c2=O)CCCC3)c(F)cc1Cl (stereo not drawn) [Example 1-243] | 5 (Herbicidal effect/phytotoxicity was 90% or greater) | 5 (Herbicidal effect/phytotoxicity was 90% or greater) | 5 (Herbicidal effect/phytotoxicity was 90% or greater) | 5 (Herbicidal effect/phytotoxicity was 90% or greater) | 5 (Herbicidal effect/phytotoxicity was 90% or greater) | 5 (Herbicidal effect/phytotoxicity was 90% or greater) | 0 (Herbicidal effect/phytotoxicity was 0% to 10%) | 1 (Herbicidal effect/phytotoxicity was 10% to 30%) | 5 (Herbicidal effect/phytotoxicity was 90% or greater) | 5 (Herbicidal effect/phytotoxicity was 90% or greater) | 5 (Herbicidal effect/phytotoxicity was 90% or greater) | 5 (Herbicidal effect/phytotoxicity was 90% or greater) | 5 (Herbicidal effect/phytotoxicity was 90% or greater) |
